# Experiments:
# Format in all cases: cell-based
# [1] = tested on: iPS cell-derived neural cells “iCell Neuron”; assay: Motion amount of iCell Neuron after adding ionotropic receptor antagonists (Example 2); details: 5 μM, FIGS. 9 and 10
# Protocol: (§1) On the microscope having the chamber, iPS cell-derived neural cells “iCell Neuron” (produced by Cellular Dynamics International, Inc.) and rat cerebral cortex primary culture (produced by Lonza, Inc.) were each set. Video images of the cells, of 260 frames at object lens magnification 20× and at 7.5 fps (for iCell Neuron) or 5 fps (for rat cerebral cortex primary culture), were taken and were obtained as cell images. A variety of ionotropic receptor antagonists were added to each of the cell cultures. The ionotropic receptor antagonist was Bicuculline which is GABA (gamma-aminobutyrate) receptor antagonist; or CNQX (6-cyano-7-nitroquinoxaline-2,3-dione) which is non-NMDA Glu (glutamate) receptor antagonist.
# (§2) The cell image was analyzed with the use of the above-described cell analysis system. Specifically, the motion information was extracted by block matching, using each of the neural cells in the cell image as the extraction range, and the motion amount was calculated from the motion information. FIGS. 9 to 12 are graphs showing results of the calculation of the motion amount. […] Note that the motion amounts shown in the respective figures are average values of the calculated motion amounts for a plurality of detail parts of nerves. […]
# [2] = tested on: rat cerebral cortex primary culture; assay: Motion amount of rat cerebral cortex primary culture after adding ionotropic receptor antagonists (Example 2)
# Protocol: as §1, §2
# [3] = tested on: rat cerebral cortex primary culture; assay: Motion amount of rat cerebral cortex primary culture after adding aquaporin inhibitor (Example 3); details: 5 μm of HgCl2, FIG. 15
# Protocol: Further, on the microscope having the chamber, rat cerebral cortex primary culture (produced by Lonza, Inc.) was set. A video image of the cells, of 260 frames at object lens magnification 20× and at 7.5 fps (for iCell Neuron) or 5 fps (for rat cerebral cortex primary culture), was taken and was obtained as a cell image. To the cell culture, […] of HgCl2 as aquaporin inhibitor was added.
# The cell image was analyzed with the use of the above-described cell analysis system. Specifically, the motion information was extracted by block matching, using each of the neural cells in the cell image as the extraction range, and the motion amount was calculated from the motion information. FIG. 15 is a graph showing a result of the calculation of the motion amount. In the figure, “0 min” in the abscissa is the time of the addition of the […], and the ordinate indicates a relative motion amount when the value before adding HgCl2 (at 0 min) is assumed to be 1.
# [4] = tested on: metabolism of the cell; assay: Effect on metabolism of the cell; details: 5 μm of HgCl2
# [5] = tested on: rat cerebral cortex primary culture; assay: Motion amount of rat cerebral cortex primary culture on change in osmotic pressure by galactose (Example 3); details: galactose at a final concentration of 2.5%, compared with no galactose, FIG. 14
# Protocol: On the microscope having the chamber, rat cerebral cortex primary culture (produced by Lonza, Inc.) was set. A video image of the cells, of 260 frames at object lens magnification 20× and at 5 fps, was taken and was obtained as a cell image. To the cell culture, galactose at a final concentration of 2.5% was added. The cell image was analyzed with the use of the above-described cell analysis system. Specifically, the motion information was extracted by block matching, using each of the neural cells in the cell image as the extraction range, and the motion amount was calculated from the motion information.
smiles,measurement,setting,value
"N#Cc1cc2c(cc1[N+](=O)[O-])=NC(=O)C(=O)N=2 [CNQX, 6-cyano-7-nitroquinoxaline-2,3-dione]","relative motion amount after adding the ionotropic receptor antagonist, value at 0 min = 1",[1],transiently reduced
same,"relative motion amount after adding the ionotropic receptor antagonist, value at 0 min = 1","[2]; 5 μM, FIGS. 11 and 12",decreased
same,motion amount for each individual cell,"[2]; 5 μm of CNQX, FIG. 13",the cells in which the motion amount was decreased by an influence of the Glu receptor antagonist and the cells in which the motion amount was not decreased
[Cl][Hg][Cl] [HgCl2],"relative motion amount after adding HgCl2, value at 0 min = 1",[3],transiently reduced
same,inhibition of metabolism of the cell,[4],does not inhibit metabolism of the cell
O=C[C@H](O)[C@@H](O)[C@@H](O)[C@H](O)CO [galactose],median value of the motion amounts for the extraction ranges,[5],almost completely reduced
